Key:
Experiment in all cases: normalised response (% of control), CellTiter-Glo; higher = more viable cells (100 = DMSO, 0 = benzethonium chloride kill control)
Details in all cases: incubation time: 72 h
MCF-10A = tested on: MCF-10A
Procedure, shortened: (§1)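 Compound was dispensed into 384-well plates at 5 concentrations in 10-fold steps spanning a 10,000-fold range specific to that compound. Breast cancer cell lines were added as 20 µl suspension and left for 72 h before CellTox Green fluorescence (485/520 nm) and then CellTiter-Glo luminescence, read after 10 min at room temperature. Each reported value is the normalised signal at one concentration, with 0.1 % DMSO set at 100 and a positive kill control at 0 on each plate.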

CAL-85-1 = tested on: CAL-85-1
Procedure, shortened: as §1

HCC1937 = tested on: HCC1937
Procedure, shortened: as §1

HCC1143 = tested on: HCC1143
Procedure, shortened: as §1

MDA-MB-468 = tested on: MDA-MB-468
Procedure, shortened: as §1

SK-BR-3 = tested on: SK-BR-3
Procedure, shortened: as §1

DU-4475 = tested on: DU-4475
Procedure, shortened: as §1

MDA-MB-436 = tested on: MDA-MB-436
Procedure, shortened: as §1

CAL-51 = tested on: CAL-51
Procedure, shortened: as §1

Hs578T = tested on: Hs578T
Procedure, shortened: as §1

MDA-MB-231 = tested on: MDA-MB-231
Procedure, shortened: as §1

BT-474 = tested on: BT-474
Procedure, shortened: as §1

CAL-120 = tested on: CAL-120
Procedure, shortened: as §1

HCC1599 = tested on: HCC1599
Procedure, shortened: as §1

HDQ-P1 = tested on: HDQ-P1
Procedure, shortened: as §1

MDA-MB-453 = tested on: MDA-MB-453
Procedure, shortened: as §1

BT-549 = tested on: BT-549
Procedure, shortened: as §1

MFM-223 = tested on: MFM-223
Procedure, shortened: as §1

CAL-148 = tested on: CAL-148
Procedure, shortened: as §1

SMILES	normalised response (MCF-10A) [%]	normalised response (CAL-85-1) [%]	normalised response (HCC1937) [%]	normalised response (HCC1143) [%]	normalised response (MDA-MB-468) [%]	normalised response (SK-BR-3) [%]	normalised response (DU-4475) [%]	normalised response (MDA-MB-436) [%]	normalised response (CAL-51) [%]	normalised response (Hs578T) [%]	normalised response (MDA-MB-231) [%]	normalised response (BT-474) [%]	normalised response (CAL-120) [%]	normalised response (HCC1599) [%]	normalised response (HDQ-P1) [%]	normalised response (MDA-MB-453) [%]	normalised response (BT-549) [%]	normalised response (MFM-223) [%]	normalised response (CAL-148) [%]
O=C(O)C1(C(=O)O)CCC1.[NH2-].[NH2-].[Pt+2] [Carboplatin] (1 nM)	108	96.6	101	103	95.2	89.3	100	101	115	101	104	98.9	97	103	97.5	109	99	98.8	100
CCN(CC)CCCC(C)Nc1c2ccc(Cl)cc2nc2ccc(OC)cc12 (stereo not given) [Mepacrine] (50 nM)	92.9	101	104	98	103	95.3	96.1	96.2	120	99.1	94	102	98.6	106	104	96.1	104	98.7	96.8
COc1cc2c(Oc3ccc4[nH]c(C)cc4c3F)ncnc2cc1OCCCN1CCCC1 [Cediranib] (0.1 nM)	100	101	104	98.1	110	106	99.9	93.3	113	94.8	109	113	101	93.4	103	107	101	103	109
CC[C@H](C)C(=O)O[C@H]1C[C@H](O)C=C2C=C[C@H](C)[C@H](CC[C@@H](O)C[C@@H](O)CC(=O)O)[C@H]21 [Pravastatin] (10 nM)	102	104	95.4	97.3	104	95.6	91.5	97.7	128	100	99.1	98.1	105	88.5	106	85.2	92.2	92.3	98.7
Nc1ncn([C@H]2C[C@H](O)[C@@H](CO)O2)c(=O)n1 [Decitabine] (1 nM)	92.4	99	101	90.8	102	96.2	102	96.5	76.5	94.3	104	99.1	97	99.7	98.2	110	90	96.4	92.1
O=C(O)C(=O)O.[NH-][C@@H]1CCCC[C@H]1[NH-].[Pt+2] [Oxaliplatin] (10 nM)	91	98.7	94.8	94	97.2	98.4	90.9	104	124	101	92.7	101	101	95	99.8	81.9	96.8	92	83.7
Nc1ccccc1NC(=O)c1ccc(CNC(=O)OCc2cccnc2)cc1 [Entinostat] (1 nM)	98.1	106	99.2	103	106	102	99.7	102	85.2	98.8	102	92.8	99.2	95.6	102	114	103	97.2	98.2
CCN(CC)CCCC(C)Nc1c2ccc(Cl)cc2nc2ccc(OC)cc12 (stereo not given) [Mepacrine] (5 nM)	107	93.8	102	97.5	100	104	96.2	111	97.8	100	99.8	96.1	107	95.6	105	96.9	104	97.2	94.5
CC[C@H](Nc1ncnc2[nH]cnc12)c1nc2cccc(F)c2c(=O)n1-c1ccccc1 [GS-1101] (10 nM)	89.7	95.3	92.3	93.2	99.8	65	100	88.3	122	97.4	93.2	93.7	93.2	112	94.2	89.1	92.7	87.8	87
C=CC(=O)N1CCC[C@@H](n2nc(-c3ccc(Oc4ccccc4)cc3)c3c(N)ncnc32)C1 [Ibrutinib] (1 nM)	111	98.3	95.3	106	105	98.1	106	98.2	102	99.3	105	103	97.7	102	98.2	107	97.8	108	114
C[C@H]1C[C@@H]2[C@H]([C@@H](O)C[C@@]3(C)[C@H]2CC[C@]3(O)C(=O)CO)[C@@]2(C)C=CC(=O)C=C12 [Methylprednisolone] (1 nM)	103	94.5	99.3	99.1	104	109	108	99.5	100	103	105	110	103	113	99.6	116	100	103	120
CCCCC(=O)OCC(=O)[C@]1(O)Cc2c(O)c3c(c(O)c2[C@@H](O[C@H]2C[C@H](NC(=O)C(F)(F)F)[C@H](O)[C@H](C)O2)C1)C(=O)c1c(OC)cccc1C3=O [Valrubicin] (0.5 nM)	111	98.2	98.3	102	99.1	97.9	99.8	98.4	87.8	96	99.6	104	95.2	97.2	101	94.2	97.1	102	94
CC[C@H](C)C(=O)O[C@H]1C[C@H](O)C=C2C=C[C@H](C)[C@H](CC[C@@H](O)C[C@@H](O)CC(=O)O)[C@H]21 [Pravastatin] (1 nM)	96	92.6	97.6	95.1	99.9	94.2	95.5	99.6	104	101	102	99.6	101	117	103	99.8	102	93.1	87.5
CC[C@@H]1C(=O)N(C)c2cnc(Nc3ccc(C(=O)NC4CCN(C)CC4)cc3OC)nc2N1C1CCCC1 [BI 2536] (0.1 nM)	106	105	98.7	94.9	108	112	103	104	103	97.4	103	105	104	110	95.7	92.6	103	106	102
CC[C@@H]1C(=O)N(C)c2cnc(Nc3ccc(C(=O)NC4CCN(C)CC4)cc3OC)nc2N1C1CCCC1 [BI 2536] (1 nM)	102	100	94.6	100	92.6	97.2	107	100	133	96.7	101	101	97.2	108	97.8	84.6	98.2	96.5	112
COc1cc2c(NC3CCN(C(C)C)CC3)nc(C3CCCCC3)nc2cc1OCCCN1CCCC1 [UNC0638] (10 nM)	83	93.3	96.6	102	88.2	85.9	90.4	94.8	116	99.7	92.5	94.2	98	82.1	95.6	85.3	98.4	88	90.8
C=CCc1cccc(/C=N/NC(=O)CN2CCN(Cc3ccccc3)CC2)c1O [PAC-1] (1 nM)	113	99.7	106	101	109	109	100	97.5	129	104	103	97.7	96.8	101	105	103	105	102	96
Cc1ccc(-c2cc(C(F)(F)F)nn2-c2ccc(S(N)(=O)=O)cc2)cc1 [Celecoxib] (1 nM)	98.8	104	95.9	96.8	102	102	95.5	95.1	88.1	105	98	96.5	96.8	93.6	97.4	111	104	102	102
CC(=O)Nc1cccc(-n2c(=O)n(C3CC3)c(=O)c3c(Nc4ccc(I)cc4F)n(C)c(=O)c(C)c32)c1 [Trametinib] (0.025 nM)	96.3	102	96.5	95.5	99.4	110	99.2	100	115	99.5	104	111	106	101	98.6	109	94.9	100	111
O=C(O)C(=O)O.[NH-][C@@H]1CCCC[C@H]1[NH-].[Pt+2] [Oxaliplatin] (1 nM)	96.6	91.3	93.9	93.2	86.7	90	91.7	106	110	98.9	94.2	91.9	98.5	95	98.2	86.8	103	91.2	91.3

— the supplement of paper PMC4862054
